Measurements reported in US6753348B2, “BTK inhibitors and methods for their identification and use” (Parker Hughes Institute, priority 1998, dated 2004).
pIC50: −log10 of the molar value.

Legend:
[1] = tested on: OVA-sensitized and challenged mice; experiment: Airway responsiveness to methacholine in mouse model of allergic asthma; assay type: in vivo; settings: ovalbumin sensitized and challenged, N = 5-6 mice
Description: FIG. 28: Inhibition of airway hyperresponsiveness by LFM-A8 in mice. Mice were sensitized with ovalbumin (OVA) on days 0 and 14 intraperitoneally. On days 20, 21 and 23, mice were challenged for 15 min with 2% OVA via airways using a untrasonic nebulizer. After 24 h of the last OVA challenge airway responsiveness to increasing concentrations of methacholine was measured. To study the effect of LFM-A8 on airway hyperresponsiveness, mice were injected intraperitoneally with indicated concentrations of LFM-A8 or vehicle on day 20, 21, and 23 1 h prior and 2 h post OVA challenge and airway responsiveness to increasing concentrations of methacholine was measured. The data points represent the mean±SEM values (N=5-6 mice).
Mouse Model of Allergic Asthma. BALB/c mice were injected intraperitoneally with 20 μg of ovalbumin (OVA) in alum on day 0, and 14. On days 21, 22 and 23 the mice were challenged for 15 min with 2% OVA via their airways by ultrasonic nebulization (Takeda, K., et al., (1997) J Exp Med, 186, 449-454). In order to study the effect of LFM-A8 on allergic asthma, mice were treated with LFM-A8 or vehicle 2 h prior to OVA challenge on day 21, 22 and 23. Mice were assessed for “airway responsiveness” on day 24, as previously reported (Takeda, K., et al., (1997) J Exp Med, 186, 449-454; Hamelmann, E., et al., (1997) Am J Respir Crit Care Med, 156, 766-775) and described below.
Determination of Airway Responsiveness. Airway responsiveness was measured in unrestrained mice by noninvasive whole body plethysmography using a BUXCO BioSystem plethysmography instrument (BUXCO, Trou, N.Y.) (Hamelmann, E., et al., (1997) Am J Respir Crit Care Med, 156, 766-775). The chamber pressure was measured with a transducer connected to a preamplifier module and analyzed by system XA software) (Hamelmann, E., et al., (1997) Am J Respir Crit Care Med, 156, 766-775). The chamber pressure was used as a measure of the difference between thoracic volume expansion or contraction and air volume removed or added to the chamber during breathing. The differential of this function with respect to time produced a pseudo-flow value that is proportionate to the difference between the rate of the thoracic volume expansion and nasal air flow. The pulmonary airflow obstruction assessed by measuring “Enhanced Pause (Penh)” using the following formula according to the manufacturer's recommendations: Penh=PEP/PIP×Pause. […] In order to measure the methacholine responses, mice were placed in the chamber and baseline readings were taken and averaged for 3 min. Mice were nebulized with saline or methacholine at increasing doses (1-100 mg/ml) for 3 min and the Penh readings were taken and averaged for 3 min after each nebulization. […]

[2] = tested on: ALL-1 cells; experiment: Ceramide-induced apoptosis, MC540/PI flow cytometry; assay type: cell-based, human; settings: 200 μM plus 10 μM C2-ceramide
[3] = target: T1, JAK3 (Homo sapiens, UniProt P52333); experiment: Cell-free tyrosine kinase inhibition assay JAK3; assay type: biochemical
T1 sequence (P52333 1-1124): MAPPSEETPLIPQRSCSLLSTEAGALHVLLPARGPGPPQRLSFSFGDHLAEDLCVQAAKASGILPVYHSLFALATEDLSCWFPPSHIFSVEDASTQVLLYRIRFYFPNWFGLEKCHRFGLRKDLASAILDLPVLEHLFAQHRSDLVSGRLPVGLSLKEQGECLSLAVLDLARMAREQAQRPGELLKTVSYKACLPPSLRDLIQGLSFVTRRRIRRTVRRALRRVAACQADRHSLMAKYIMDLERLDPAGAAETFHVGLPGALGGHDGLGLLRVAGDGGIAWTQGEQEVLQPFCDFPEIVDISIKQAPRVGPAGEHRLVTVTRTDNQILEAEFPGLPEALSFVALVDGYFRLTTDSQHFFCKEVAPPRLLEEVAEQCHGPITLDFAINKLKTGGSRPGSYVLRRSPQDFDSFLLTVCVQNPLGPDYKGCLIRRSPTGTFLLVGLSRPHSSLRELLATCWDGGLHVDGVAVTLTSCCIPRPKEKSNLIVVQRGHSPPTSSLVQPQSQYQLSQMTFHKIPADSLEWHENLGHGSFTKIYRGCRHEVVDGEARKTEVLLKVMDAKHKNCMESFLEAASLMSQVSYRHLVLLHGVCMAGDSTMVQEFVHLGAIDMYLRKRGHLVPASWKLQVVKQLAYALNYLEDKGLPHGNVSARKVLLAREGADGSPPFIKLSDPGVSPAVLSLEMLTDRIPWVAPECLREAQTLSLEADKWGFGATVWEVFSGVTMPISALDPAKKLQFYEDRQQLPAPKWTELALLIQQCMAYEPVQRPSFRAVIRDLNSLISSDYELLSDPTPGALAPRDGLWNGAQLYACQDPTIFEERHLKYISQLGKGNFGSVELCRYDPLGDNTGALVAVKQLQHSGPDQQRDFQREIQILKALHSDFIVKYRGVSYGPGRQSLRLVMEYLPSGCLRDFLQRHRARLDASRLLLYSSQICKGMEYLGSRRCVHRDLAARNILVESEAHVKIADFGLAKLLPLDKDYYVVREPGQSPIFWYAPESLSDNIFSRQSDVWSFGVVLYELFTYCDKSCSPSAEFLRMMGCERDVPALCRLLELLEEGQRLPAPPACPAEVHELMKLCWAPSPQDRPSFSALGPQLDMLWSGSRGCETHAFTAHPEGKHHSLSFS

Structure (SMILES)	Requirement of Methacholine for an Increase in Penh of 100% ([1]; 15 mg/Kg intraperitoneally) [mg/mL]	Requirement of Methacholine for an Increase in Penh of 200% ([1]; 15 mg/Kg intraperitoneally) [mg/mL]	Requirement of Methacholine for an Increase in Penh of 100% ([1]; 50 mg/Kg intraperitoneally) [mg/mL]	Requirement of Methacholine for an Increase in Penh of 200% ([1]; 50 mg/Kg intraperitoneally) [mg/mL]	chemosensitivity to ceramide-induced apoptosis [2]	pIC50 [3]	effect on enzymatic activity of JAK3 ([3]; concentrations as high as 100 μg/ml (~278 μM))
CC(O)=C(C#N)C(=O)Nc1cccc(C(F)(F)F)c1 [LFM-A8, α-Cyano-β-hydroxy-β-methyl-N-[3-(trifluoromethyl)phenyl]-propenamide]	36.8	82	67.5	129			
C/C(O)=C(\C#N)C(=O)Nc1cc(Br)ccc1Br [LFM-A13, α-Cyano-β-hydroxy-β-methyl-N-(2,5-dibromophenyl)-propenamide]					significantly enhanced the chemosensitivity	< 3.56	did not affect the enzymatic activity
